For orientation: Ki means a measure of affinity in units of concentration, obtained from inhibition or displacement. The low end stands for a stronger hold on the target, the high end for a looser hold on the target. As usually defined, the Kd is the equilibrium constant for the complex coming apart.

The target in test [1] is T1, OXA-48 (Klebsiella pneumoniae, UniProt Q6XEC0). Conditions: non-β-lactam inhibitors; cited from earlier work.
For test [2], the target named is T1, OXA-48. Kind of test: OXA-48 inhibition assay using nitrocefin as reporter. The arrangement: His-tag (N, cleaved yes); made in house; host or cells: E. coli BL21(DE3), pET28a. To be noted: for Ki: purified OXA-48, nitrocefin hydrolysis, Morrison fit; for fold reduction in potency (OXA-48 Ki) compared to CDD-97: relative to CDD-97. The class given is biochemical. Here is the method: Nitrocefin, a chromogenic β-lactam substrate, was used as a reporter in all inhibition assays with the various OXA enzymes and various compounds. Nitrocefin is not stable in aqueous solution long-term. For these assays, nitrocefin stocks were prepared in DMSO, stored at −20° C. and used within 2 weeks of dissolving. To avoid freeze-thawing, fresh stocks were always used. The Km of nitrocefin was determined prior to inhibition assays by performing steady state kinetics. Assays were performed using a DU800 spectrophotometer at room temperature in 50 mM HEPES pH 7.5, 15 mM NaHCO3, and 0.02% tween 20 buffer. Hydrolyzed nitrocefin was detected at 482 nm. For a single experiment, a series of at least 5 nitrocefin concentrations were tested against the given enzyme in duplicate and the initial velocities were measured and fit to the Michaelis-Menten equation. Experiments were repeated twice, and error reported is the standard error of the mean.
Compounds were tested for inhibition of a given OXA enzyme from hydrolyzing nitrocefin using a Tecan plate reader. […] A control with no compound was included in each run. For each compound concentration, the velocity of nitrocefin hydrolysis was determined at 482 nm and fit to the Morrison equation. […] The average Ki of separate experiments, each of which consisted of duplicate runs, is reported and error was quantified as the standard deviation.
The activity of these derivatives was assessed using inhibition assays with purified OXA-48. Compounds were tested for the ability to inhibit OXA-48 from hydrolyzing nitrocefin, a chromogenic β-lactam substrate routinely used in β-lactamase inhibition assays. Nitrocefin contains a conjugated ring system that is readily hydrolyzed and produces a visible color shift from yellow to red upon hydrolysis (O'Callaghan, et al., 1972, Antimicrob. Agents Chemother. 1:283-288). The rate of nitrocefin hydrolysis in the presence of a constant amount of OXA-48 and increasing concentrations of a given compound of interest was monitored at 482 nm. These rates were plotted against compound concentration to determine the inhibition constant (Ki) against OXA-48. […] SPR was performed using 6×-His-OXA-48 enzyme that was amine-coupled on a Ni-NTA Chip. Meropenem, which covalently binds and inhibits OXA-48, was used as a positive control.

Test [3] deals with T2, OXA-24 (Acinetobacter baumannii, UniProt Q8RLA6).
T2 construct: His-tag (N, cleaved yes); made in house; host or cells: E. coli BL21 (DE3), pET28a
T2 sequence (Q8RLA6 entry or part of it): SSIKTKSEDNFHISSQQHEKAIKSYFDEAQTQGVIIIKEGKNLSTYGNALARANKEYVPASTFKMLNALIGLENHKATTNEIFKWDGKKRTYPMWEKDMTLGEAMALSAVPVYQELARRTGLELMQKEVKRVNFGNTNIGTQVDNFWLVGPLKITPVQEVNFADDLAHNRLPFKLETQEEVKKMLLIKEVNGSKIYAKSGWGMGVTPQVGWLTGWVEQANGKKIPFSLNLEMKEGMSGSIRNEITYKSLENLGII
Kind of test: Example 8 inhibition assay with nitrocefin (aromatic acids): OXA-24. The test is classed as biochemical. The method, then:
(§1) For each of the OXA enzymes, the nitrocefin steady states were determined so nitrocefin could be used as a reporter in the inhibition assays. Nitrocefin (MilliporeSigma, Burlington, MA) was kept at −20° C. upon purchase and thawed at room temperature and diluted in DMSO for usage. DMSO stocks were aliquoted and kept at −20° C. for only up to 2 weeks after dissolving. To determine the steady state kinetic parameters for nitrocefin hydrolysis, reactions were monitored on a DU-800 spectrophotometer (Beckman Coulter, Brea, CA) at 25° C. Enzyme and substrate samples were diluted using 50 mM HEPES, pH 7.5, 15 mM NaHCO3, and 0.02% Tween-20. Hydrolyzed nitrocefin was tracked at 482 nm. For a single experiment, a series of at least 5 nitrocefin concentrations was tested against the given enzyme. […] The Km values determined for each enzyme was used to determine the amount of nitrocefin to use in the inhibition assays.
(§2) The inhibition activity for compounds were assessed using inhibition assays with nitrocefin as the reporter. […] Compounds were tested at up to 500-4000 μM depending on solubility and absorbance output. The initial velocity of nitrocefin hydrolysis was monitored using a Tecan M200 Infinite Pro plate reader (Tecan, Mannedorf, Switzerland). […] Ligand efficiency (LE) was calculated using a previously reported equation: LE=1.37 (pKi)/(# non-Hydrogen atoms). […]

Test [4] deals with T3, OXA-58 (Acinetobacter baumannii, UniProt Q2TR58).
T3 construct: His-tag (N, cleaved yes); made in house; host or cells: E. coli BL21 (DE3), pET28a
T3 sequence (Q2TR58 19-280): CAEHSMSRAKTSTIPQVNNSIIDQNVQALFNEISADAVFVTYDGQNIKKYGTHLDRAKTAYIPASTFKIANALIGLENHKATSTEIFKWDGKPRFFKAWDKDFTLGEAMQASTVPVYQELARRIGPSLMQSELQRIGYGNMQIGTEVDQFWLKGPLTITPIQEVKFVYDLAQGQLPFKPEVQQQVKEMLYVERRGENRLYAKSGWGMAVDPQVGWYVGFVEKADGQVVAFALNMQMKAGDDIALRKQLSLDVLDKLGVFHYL
Kind of test: biochemical. Here is the method:
as §1, §2

Test [5] addresses T1, OXA-48. Kind of test: Example 8 inhibition assay with nitrocefin (aromatic acids): OXA-48. The class given is biochemical. Also noted: His-tag (N, cleaved yes); made in house; host or cells: E. coli BL21(DE3), pET28a. Here is the method: For each of the OXA enzymes, the nitrocefin steady states were determined so nitrocefin could be used as a reporter in the inhibition assays. Nitrocefin (MilliporeSigma, Burlington, MA) was kept at −20° C. upon purchase and thawed at room temperature and diluted in DMSO for usage. DMSO stocks were aliquoted and kept at −20° C. for only up to 2 weeks after dissolving. To determine the steady state kinetic parameters for nitrocefin hydrolysis, reactions were monitored on a DU-800 spectrophotometer (Beckman Coulter, Brea, CA) at 25° C. Enzyme and substrate samples were diluted using 50 mM HEPES, pH 7.5, 15 mM NaHCO3, and 0.02% Tween-20. Hydrolyzed nitrocefin was tracked at 482 nm. For a single experiment, a series of at least 5 nitrocefin concentrations was tested against the given enzyme. Each substrate concentration was tested in duplicate and initial velocities were averaged (for a given concentration) and fit the Michaelis-Menten equation. The experiment was repeated for rigor. The Km values determined for each enzyme was used to determine the amount of nitrocefin to use in the inhibition assays.
The inhibition activity for compounds were assessed using inhibition assays with nitrocefin as the reporter. A constant concentration of nitrocefin and the given enzyme was used with increasing concentrations of the compound in question. […] The enzymes OXA-24, OXA-48 and OXA-58 were used in their corresponding inhibition experiments at a constant concentration of 0.2 nM, 0.2 nM and 0.1 nM respectively. Compounds were tested at up to 500-4000 μM depending on solubility and absorbance output. The initial velocity of nitrocefin hydrolysis was monitored using a Tecan M200 Infinite Pro plate reader (Tecan, Mannedorf, Switzerland). The velocities at various compound concentrations were fit to the Morrison Tight Binding equation to determine the Ki value for the given fragment with the given OXA enzyme. Ligand efficiency (LE) was calculated using a previously reported equation: LE=1.37 (pKi)/(# non-Hydrogen atoms). […]

In test [6] the target is T1, OXA-48. Nature of the test: Surface plasmon resonance binding to immobilized 6x-His-OXA-48. Conditions: SPR, immobilized His-OXA-48, positive control. Also noted: His-tag (N, cleaved yes); made in house; host or cells: E. coli BL21(DE3), pET28a. Here is the method: 6×-His-OXA-48 was capture/amine-coupled on a Ni-NTA Chip at a density of ˜5000 RU. Running buffer was 10 mM HEPES pH 7.4, 150 NaCl, 50 mM NaHCO3, 0.005% Tween-20, 2% DMSO. Concentration gradients of each compound were created from 0-15 μM using OneStep Injections in at least triplicates for meropenem and CDD-97.
Synthon-derivatives were created, without DNA tags, based on high OXA-48 enrichment and minimal NTC enrichment. The activity of these derivatives was assessed using inhibition assays with purified OXA-48. Compounds were tested for the ability to inhibit OXA-48 from hydrolyzing nitrocefin, a chromogenic β-lactam substrate routinely used in β-lactamase inhibition assays. Nitrocefin contains a conjugated ring system that is readily hydrolyzed and produces a visible color shift from yellow to red upon hydrolysis (O'Callaghan, et al., 1972, Antimicrob. Agents Chemother. 1:283-288). The rate of nitrocefin hydrolysis in the presence of a constant amount of OXA-48 and increasing concentrations of a given compound of interest was monitored at 482 nm. These rates were plotted against compound concentration to determine the inhibition constant (Ki) against OXA-48. Compounds with promising activity were also assessed for binding using surface plasmon resonance (SPR). SPR was performed using 6×-His-OXA-48 enzyme that was amine-coupled on a Ni-NTA Chip. Meropenem, which covalently binds and inhibits OXA-48, was used as a positive control.
(SPR reads the build-up and loss of mass on a sensor chip optically.)

Structures are written as SMILES. Several values for one entry are separate records, joined by “and”; a condition that tells them apart may be missing. Equal values may be shown once. Entries after “also recorded” stand apart in the source; their conditions may differ. A value given as a limit tells only on which side of the number the result lay.

T1 sequence (Q6XEC0 23-265, looked up): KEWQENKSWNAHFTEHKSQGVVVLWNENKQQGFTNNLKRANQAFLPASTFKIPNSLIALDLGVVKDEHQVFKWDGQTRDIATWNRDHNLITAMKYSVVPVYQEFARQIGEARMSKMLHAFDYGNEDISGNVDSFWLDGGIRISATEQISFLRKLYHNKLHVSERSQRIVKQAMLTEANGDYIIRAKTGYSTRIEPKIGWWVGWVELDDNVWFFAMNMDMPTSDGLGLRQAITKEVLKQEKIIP

Take `O=C(NC1CCNCC1)[C@@H]1CC[C@@H]2CN1C(=O)N2OS(=O)(=O)O` [relebactam]: the “efficacy against OXA-48 in words” value in test [1] was “ineffective against OXA-48”.
In the case of `O=C(O)C1CCN(c2ncnc(N3CCN(c4ccccc4C(F)(F)F)CC3)n2)CC1` [CDD-180, 1-(4-(4-(2-(trifluoromethyl)phenyl)piperazin-1-yl)-1,3,5-triazin-2-yl)piperidine-4-carboxylic acid], the Ki in test [2] came to 1.7 µM.
Take `CCOc1ccccc1N1CCN(c2ncnc(N3CCC(C(=O)OC)CC3)n2)CC1` [CDD-95, methyl 1-(4-(4-(2-ethoxyphenyl)piperazin-1-yl)-1,3,5-triazin-2-yl)piperidine-4-carboxylate]: in test [2] (purified OXA-48, compared with CDD-97 where a derivative), the “potency/activity against OXA-48 in words” value was “low of activity; also recorded: significant loss of inhibitory activity”. The molecule also registered a Ki in test [2] of at least 50 µM.
Regarding `CCOc1ccccc1N1CCN(c2nc(NCCN)nc(N3CCC(C(=O)O)CC3)n2)CC1` [drawing 44], the affinity in test [2] corresponds to a Ki of 0.84 ± 0.03 µM.
Same read-out and setting: to `CN1CCN(c2ncnc(N3CCC(C(=O)O)CC3)n2)CC1` [CDD-187, 1-(4-(4-methylpiperazin-1-yl)-1,3,5-triazin-2-yl)piperidine-4-carboxylic acid] belongs above 50 µM.
On to `CCOc1ccccc1N1CCN(c2ncnc(N3CCNC(C(=O)O)CC3)n2)CC1` (stereo not drawn) [CDD-559], for which, in test [2], the Ki worked out at 29 µM and the “fold reduction in potency (OXA-48 Ki) compared to CDD-97” value is “approximately 50 fold”.
`CCOc1ccccc1N1CCN(c2ncnc(N3CCC(C(=O)O)C(N)C3)n2)CC1` (stereo not drawn) [CDD-825]: in test [2], the Ki was 17 µM and 16.9 µM; the “fold reduction in potency (OXA-48 Ki) compared to CDD-97” value was “approximately 30 fold”.
For `CCOc1ccccc1N1CCN(c2nc(NCCN)nc(N3CCC(C(=O)O)CC3)n2)CC1` [CDD-864, 1-(4-((2-aminoethyl)amino)-6-(4-(2-ethoxyphenyl)piperazin-1-yl)-1,3,5-triazin-2-yl)piperidine-4-carboxylic acid], affinity in test [2] was put at a Ki of 0.6 µM.
In the case of `O=C(O)C[C@@H]1CC[C@H](NC(=O)Cc2cccs2)B(O)O1` [vaborbactam], the “efficacy against OXA-48 in words” value in test [1] is “ineffective against OXA-48”.
With `CCOc1ccccc1CCNc1ncnc(N2CCC(C(=O)O)CC2)n1` [CDD-375, 1-(4-((2-ethoxyphenethyl)amino)-1,3,5-triazin-2-yl)piperidine-4-carboxylic acid], the Ki in test [2] stood at 7.51 ± 0.23 µM.
Take `O=C(O)c1ccccc1O` [Compound 1.1]: the “inhibition activity against OXA-24 in words” value in test [3] is “low millimolar activity”. This molecule also had a Ki in test [4] of 379 ± 44 µM. The “inhibition activity against OXA-48 in words” value in test [5] was “low millimolar activity”.
`O=C(O)c1ccc(-c2ccc(C(=O)O)cc2)cc1` [Compound 2.1]: the “ligand efficiency (LE) for OXA-48 inhibition” value in test [5] (LE=1.37 (pKi)/(# non-Hydrogen atoms)) is recorded as 0.36. In addition, the inhibition constant Ki in test [5] (OXA-48 0.2 nM, 25 μM nitrocefin) was 17.2 ± 1 µM.
Take `CCOc1ccccc1N1CCN(c2ncnc(N3CCC(N)(C(=O)O)CC3)n2)CC1`: the affinity in test [2], expressed as Ki, was 29 ± 4 µM.
The molecule `C[C@@H](O)[C@H]1C(=O)N2C(C(=O)O)=C(S[C@@H]3CN[C@H](C(=O)N(C)C)C3)[C@H](C)[C@H]12` [Meropenem, reference compound] showed a Kd in test [6] of 0.4235 ± 0.0002 µM.
In turn, `CCOc1ccccc1N1CCN(c2ncnc(N3CCC(S(=O)(=O)O)CC3)n2)CC1` [drawing 46] showed a Ki in test [2] of 0.26 ± 0.04 µM.

These data come from patent publication US12286418B2, “Compounds and methods for treating or preventing bacterial infections” (priority 2019, dated 2025).
